Experiments:
[1] = test system: blood glucose levels; experiment: Blood glucose lowering pharmacodynamics in rats (Amplex Red Glucose/Glucose Oxidase Assay); assay type: in vivo; details: intravenous administration (FIG. 6)
[2] = rat

Row | Substance | blood glucose lowering ability in vivo [1] | in vivo half life [2] | duration of stably reduced blood glucose levels [1]
1 | 20K-PEG-insulin: 20 kD PEG-NHS conjugated to human insulin, one 20 kD PEG; benchmark therapeutic (see EP2288375) | did not display significant glucose lowering ability for an extended time | improved the in vivo half life | –
2 | VitD-(25)-PEG2K-insulin: 2 KDa PEG scaffold on carbon 25 of vitamin D, carrier conjugated to lysine 29 on the insulin B-chain | – | improved the in vivo half life | approximately eight

— patent US10420819B2 (Extend Biosciences, Inc., priority 2014, dated 2019)
